Measurements: patent publication US6653529B2, “Use of the maize X112 mutant ahas 2 gene and imidazolinone herbicides for selection of transgenic monocots, maize, rice and wheat plants resistant to the imidazolinone herbicides” (BASF Aktiengesellschaft, priority 2000, dated 2003)

Key:
[1] = system: untransformed Nortai (Nt) rice plants; experiment: Greenhouse spray test of rice with PURSUIT imazethapyr (pre- and post-emergence); type: in vivo; settings: for No. panicles/plant Mean / No. tillers/plant Mean / Plant height Mean / Yield % 0× / Yield Mean: Nt
[2] = system: AHAS (acetohydroxyacid synthase) in extracts of Nortai, Line 26 and Line 29; experiment: In vitro AHAS activity assay; type: biochemical, rice; settings: a significant portion of the enzyme activity; compared with normal enzyme from Nortai; FIG. 2
Description: Previously published procedures were used for the extraction and in vitro assay for AHAS activity (Singh et al. 1988). Lower portions of the shoots were used as the source of plant tissue for the assay. The desalted crude extracts were used for the in vitro enzyme assays. Acetolactate produced by the enzyme was converted to acetoin, which was measured by the Westerfield assay system.
In vitro AHAS assays were performed to understand the basis of herbicide tolerance in the transgenic plants. Previously published procedure was used for the extraction and in vitro assay for AHAS activity (Singh et al. 1988). The lower portions of the shoots were used as the source of plant tissue for the assay. The desalted crude extracts were used for the in vitro enzyme assays. Acetolactate produced by the enzyme was converted to acetoin, which was measured by the Westerfield assay system (Westerfield 1945). The specific activity of AHAS was about 30% higher in Line 26 (67 nmoles/mg protein/h) and Line 29 (64 nmoles/mg protein/h) compared to the activity in Nortai (Nt) (50 nmoles/mg protein/h).

[3] = system: transgenic rice Line 29 (maize XI12 ahas2 gene); experiment: Greenhouse spray test of rice with PURSUIT imazethapyr (pre- and post-emergence); type: in vivo
[4] = system: untransformed Nt rice plants; experiment: Response of rice plants to various herbicides, seed set in greenhouse; type: in vivo; settings: post-emergence, 1× g ai/ha: PURSUIT 62.5, CADRE 32, ARSENAL 24, RAPTOR 32, SCEPTER 125, ACCENT 35, CLASSIC 5, AC322,140 20, LONDAX 68
How it was run: (§1)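 Greenhouse flats, 10 plants per cell; 9 herbicides (imidazolinones, rice herbicides, nicosulfuron, chlorimuron-ethyl) sprayed pre- or post-emergence at 1, 2, 4 and 6× rates, three replications. Fresh weight taken 32 days (pre) or 29 days (post, 5 plants/cell) after spraying; remaining plants grown to maturity for percentage filled-seed set.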

[5] = system: transgenic rice Line 26; experiment: as above; type: in vivo; settings: post-emergence, 1× g ai/ha: PURSUIT 62.5, CADRE 32, ARSENAL 24, RAPTOR 32, SCEPTER 125, ACCENT 35, CLASSIC 5, AC322,140 20, LONDAX 68
How it was run: as §1

[6] = system: transgenic rice Line 29; experiment: as above; type: in vivo; settings: post-emergence, 1× g ai/ha: PURSUIT 62.5, CADRE 32, ARSENAL 24, RAPTOR 32, SCEPTER 125, ACCENT 35, CLASSIC 5, AC322,140 20, LONDAX 68
How it was run: as §1

[7] = post-emergence, Rate 63 (g ai/ha)
[8] = post-emergence, Rate 125 (g ai/ha)
[9] = post-emergence, Rate 250 (g ai/ha)

SMILES: CCc1cnc(C2=NC(C)(C(C)C)C(=O)N2)c(C(=O)O)c1 (centres unmarked) [PURSUIT ®, imazethapyr]
- reduction in plant height ([1]; Nortai, pre-emergence, 63 g/ha): about 20%
- reduction in yield ([1]; Nortai, pre-emergence, 63 g/ha): ~40%
- No. panicles/plant Mean [1, 7]: 15.7
- No. tillers/plant Mean [1, 7]: 20.0
- Plant height Mean [1, 7]: 117.3 cm
- Yield % 0× [1, 7]: 99 % 0×
- Yield Mean [1, 7]: 227.0 g/5 plants
- No. panicles/plant Mean [1, 8]: 13.9
- No. tillers/plant Mean [1, 8]: 13.5
- Plant height Mean [1, 8]: 94.5 cm
- Yield % 0× [1, 8]: 52 % 0×
- Yield Mean [1, 8]: 120.0 g/5 plants
- No. panicles/plant Mean [1, 9]: 0
- No. tillers/plant Mean [1, 9]: 0
- Plant height Mean [1, 9]: 0 cm
- Yield % 0× [1, 9]: 0 % 0×
- Yield Mean [1, 9]: 0 g/5 plants
- No. panicles/plant Mean ([1]; pre-emergence, 63 g/ha): 5.7
- No. tillers/plant Mean ([1]; pre-emergence, 63 g/ha): 6.5
- Plant height Mean ([1]; pre-emergence, 63 g/ha): 98.0 cm
- Yield % 0× ([1]; pre-emergence, 63 g/ha): 56 % 0×
- Yield Mean ([1]; pre-emergence, 63 g/ha): 110.7 g/5 plants
- No. panicles/plant Mean ([1]; pre-emergence, 125 g/ha): 0
- No. tillers/plant Mean ([1]; pre-emergence, 125 g/ha): 0
- Plant height Mean ([1]; pre-emergence, 125 g/ha): 0 cm
- Yield % 0× ([1]; pre-emergence, 125 g/ha): 0 % 0×
- Yield Mean ([1]; pre-emergence, 125 g/ha): 0 g/5 plants
- No. panicles/plant Mean ([1]; pre-emergence, 250 g/ha): 0
- No. tillers/plant Mean ([1]; pre-emergence, 250 g/ha): 0
- Plant height Mean ([1]; pre-emergence, 250 g/ha): 0 cm
- Yield % 0× ([1]; pre-emergence, 250 g/ha): 0 % 0×
- Yield Mean ([1]; pre-emergence, 250 g/ha): 0 g/5 plants
- fate of control plants ([1]; post-emergence, 250 g ai/ha): killed all plants
- fate of control (Nortai) plants ([1]; pre-emergence, 125 and 250 g/ha): completely killed
- inhibition of AHAS activity from tolerant Line 26 and Line 29 [2]: insensitive to inhibition
- No. panicles/plant Mean [3, 7]: 27.7
- No. tillers/plant Mean [3, 7]: 34.5
- Plant height Mean [3, 7]: 112.5 cm
- Yield % 0× [3, 7]: 93 % 0×
- Yield Mean [3, 7]: 199.0 g/5 plants
- No. panicles/plant Mean [3, 8]: 24.5
- No. tillers/plant Mean [3, 8]: 28.3
- Plant height Mean [3, 8]: 114.1 cm
- Yield % 0× [3, 8]: 113 % 0×
- Yield Mean [3, 8]: 240.7 g/5 plants
- No. panicles/plant Mean [3, 9]: 23.0
- No. tillers/plant Mean [3, 9]: 24.1
- Plant height Mean [3, 9]: 110.2 cm
- Yield % 0× [3, 9]: 93 % 0×
- Yield Mean [3, 9]: 197.3 g/5 plants
- No. panicles/plant Mean ([3]; pre-emergence, 63 g/ha): 15.6
- No. tillers/plant Mean ([3]; pre-emergence, 63 g/ha): 16.2
- Plant height Mean ([3]; pre-emergence, 63 g/ha): 92.7 cm
- Yield % 0× ([3]; pre-emergence, 63 g/ha): 93 % 0×
- Yield Mean ([3]; pre-emergence, 63 g/ha): 156.3 g/5 plants
- No. panicles/plant Mean ([3]; pre-emergence, 125 g/ha): 16.3
- No. tillers/plant Mean ([3]; pre-emergence, 125 g/ha): 14.3
- Plant height Mean ([3]; pre-emergence, 125 g/ha): 95.1 cm
- Yield % 0× ([3]; pre-emergence, 125 g/ha): 99 % 0×
- Yield Mean ([3]; pre-emergence, 125 g/ha): 166.7 g/5 plants
- No. panicles/plant Mean ([3]; pre-emergence, 250 g/ha): 16.2
- No. tillers/plant Mean ([3]; pre-emergence, 250 g/ha): 16.3
- Plant height Mean ([3]; pre-emergence, 250 g/ha): 93.1 cm
- Yield % 0× ([3]; pre-emergence, 250 g/ha): 92 % 0×
- Yield Mean ([3]; pre-emergence, 250 g/ha): 155.3 g/5 plants
- % seed-set ([4]; 1× rate): 35%
- No. filled seeds/3 panicles ([4]; 1× rate): 38
- Total No. of kernels/3 panicles ([4]; 1× rate): 47
- % seed-set ([4]; 2× rate): 0%
- No. filled seeds/3 panicles ([4]; 2× rate): 0
- Total No. of kernels/3 panicles ([4]; 2× rate): 0
- % seed-set ([4]; 4× rate): 10%
- No. filled seeds/3 panicles ([4]; 4× rate): 19
- Total No. of kernels/3 panicles ([4]; 4× rate): 21
- % seed-set ([4]; 6× rate): 0%
- No. filled seeds/3 panicles ([4]; 6× rate): 0
- Total No. of kernels/3 panicles ([4]; 6× rate): 0
- % seed-set ([5]; 1× rate): 91%
- No. filled seeds/3 panicles ([5]; 1× rate): 143
- Total No. of kernels/3 panicles ([5]; 1× rate): 157
- % seed-set ([5]; 2× rate): 86%
- No. filled seeds/3 panicles ([5]; 2× rate): 133
- Total No. of kernels/3 panicles ([5]; 2× rate): 155
- % seed-set ([5]; 4× rate): 89%
- No. filled seeds/3 panicles ([5]; 4× rate): 152
- Total No. of kernels/3 panicles ([5]; 4× rate): 172
- % seed-set ([5]; 6× rate): 77%
- No. filled seeds/3 panicles ([5]; 6× rate): 107
- Total No. of kernels/3 panicles ([5]; 6× rate): 138
- % seed-set ([6]; 1× rate): 85%
- No. filled seeds/3 panicles ([6]; 1× rate): 125
- Total No. of kernels/3 panicles ([6]; 1× rate): 146
- % seed-set ([6]; 2× rate): 88%
- No. filled seeds/3 panicles ([6]; 2× rate): 136
- Total No. of kernels/3 panicles ([6]; 2× rate): 155
- % seed-set ([6]; 4× rate): 88%
- No. filled seeds/3 panicles ([6]; 4× rate): 138
- Total No. of kernels/3 panicles ([6]; 4× rate): 156
- % seed-set ([6]; 6× rate): 87%
- No. filled seeds/3 panicles ([6]; 6× rate): 141
- Total No. of kernels/3 panicles ([6]; 6× rate): 160
